These results are taken from ChEMBL document CHEMBL5729568, “Ras inhibitors” (2023).

pIC50: −log10 of the molar value. Bounds are passed on as bounds.

Assay [1] can be described thus: (§1) Biochemical Assay: A variety of Ras proteins may be inhibited by compounds of the present invention (e.g., K-Ras, N-Ras, H-Ras, and mutants thereof at positions 12, 13 and 61, such as G12C, G12D, G12V, G12S, G13C, G13D, and Q61L, and others described herein). The purpose of this biochemical assay is to measure the ability of test compounds to covalently label nucleotide-loaded K-Ras isoforms. […] The sample is incubated at 25? C. for a time period of up to 24 hours prior to quenching by the addition of 10 uL of 5% Formic Acid. Quenched samples are centrifuged at 15000 rpm for 15 minutes in a benchtop centrifuge before injecting a 10 uL aliquot onto a reverse phase C4 column and eluting into the mass spectrometer with an increasing acetonitrile gradient in the mobile phase. Analysis of raw data may be carried out using Waters MassLynx MS software, with % bound calculated from the deconvoluted protein peaks for labeled and unlabeled K-Ras.

Assay [2] in a line: as §1. This is another data set of the same source.
The nature of assay [3]: as §1. The source holds these as a separate data set.
The nature of assay [4]: as §1. This is another data set of the same source.
Assay [5] in a line: as §1. The source holds these as a separate data set.
Assay [6] can be described thus: as §1. This is another data set of the same source.
Assay [7] in a line: as §1. The source holds these as a separate data set.
The next assay addresses GTPase KRas (Homo sapiens, UniProt P01116). Briefly: The purpose of this biochemical assay is to measure the ability of test compounds to covalently label nucleotide-loaded K-Ras isoforms. […] Analysis of raw data may be carried out using Waters MassLynx MS software, with % bound calculated from the deconvoluted protein peaks for labeled and unlabeled K-Ras.

In the case of `CCn1c(-c2cccnc2C(C)OC)c2c3cc(ccc31)N1CCO[C@@H](C[C@H](NC(=O)[C@H](C(C)C)N(C)C(=O)C3(F)CCN(C(=O)C#CC(C)(C)N(C)C)CC3)C(=O)N3CCC[C@H](N3)C(=O)OCC(C)(C)C2)C1` (some centres undefined), the IC50 entry is “in the range around 5.5 µM” in assay [1]; “in the range around 0.55 µM” in assay [2]; “in the range around 5.5 µM” in assay [3]; “in the range around 5.5 µM” in assay [4]; “in the range around 5.5 µM” in assay [5]; “in the range around 5.5 µM” in assay [7]. Also, in assay [6], the negative-log IC50 (pIC50) is > 8.00.
Take `CCn1c(-c2cccnc2C(C)OC)c2c3cc(ccc31)N1CCC[C@@H](C[C@H](NC(=O)[C@@H](COC3CN(C(=O)C#CC(C)(C)N(C)C)C3)C(C)C)C(=O)N3CCC[C@H](N3)C(=O)OCC(C)(C)C2)C1` (some centres undefined): the negative-log IC50 (pIC50) in assay [1], in assay [2], in assay [3], in assay [4], in assay [5] and in assay [7] was < 5.00 in each case. Also, the IC50 entry in assay [6] was “in the range around 0.055 µM”.
For `CCn1c(-c2cccnc2C(C)OC)c2c3cc(ccc31)-c1csc(n1)C[C@H](NC(=O)[C@@H](COC1CN(C(=O)C#CC(C)(C)N(C)C)C1)C(C)C)C(=O)N1CCC[C@H](N1)C(=O)OCC(C)(C)C2` (some centres undefined), the negative logarithm of the IC50 (pIC50) is < 5.00 in assay [1], < 5.00 in assay [4], < 5.00 in assay [5] and > 8.00 in assay [6]. The IC50 result in assay [2], in assay [3] and in assay [7] was “in the range around 5.5 µM” each time.
In the case of `C=CC(=O)N1CC[C@H](C(=O)N(C)[C@H](C(=O)N[C@H]2Cc3cc(O)cc(c3)-c3ccc4c(c3)c(c(-c3ccc(CN(C)C)cc3COC)n4CC)CC(C)(C)COC(=O)[C@@H]3CCCN(N3)C2=O)C(C)C)C1`, the IC50 entry at GTPase KRas is “in the range around 0.055 µM”.
Turning to `C=CC(=O)N1CC[C@H](C(=O)N(C)[C@H](C(=O)N[C@H]2Cc3cc(O)cc(c3)-c3ccc4c(c3)c(c(-c3ccccc3CN(C)C)n4CC)CC(C)(C)COC(=O)[C@@H]3CCCN(N3)C2=O)C(C)C)C1`, at GTPase KRas, the concentration for half-maximal inhibition (IC50) result is “in the range around 0.055 µM”.
For the compound `C=CC(=O)N1CC(OC[C@H](C(=O)N[C@H]2C[C@H]3CN(CCO3)c3ccc4c(c3)c(c(-c3cccnc3C(C)OC)n4CC(F)(F)F)CC(C)(C)COC(=O)[C@@H]3CCCN(N3)C2=O)C(C)C)C1` (some centres undefined), the pIC50 in assay [1] and in assay [4] was < 5.00 throughout. Moreover, the IC50 entry in assay [2] is “in the range around 5.5 µM”; in assay [3] it was “in the range around 5.5 µM”; in assay [5], “in the range around 5.5 µM”; in assay [6], “in the range around 0.55 µM”; in assay [7] it was “in the range around 5.5 µM”.
As to `C=CC(=O)N1CC(OC[C@H](C(=O)N[C@H]2Cc3cc(F)cc(c3)-c3ccc4c(c3)c(c(-c3cccnc3C(C)OC)n4CC(F)(F)F)CC(C)(C)COC(=O)[C@@H]3CCCN(N3)C2=O)C(C)C)C1` (some centres undefined), the 50% inhibitory concentration (IC50) entry in assay [1] is “in the range around 5.5 µM”; in assay [2], “in the range around 0.55 µM”; in assay [3] it was “in the range around 5.5 µM”; in assay [4], “in the range around 5.5 µM”; in assay [5], “in the range around 5.5 µM”; in assay [6], “in the range around 0.55 µM”. For the same compound, the IC50 entry in assay [7] is “in the range around 0.55 µM”.
In the case of `C=CC(=O)N1CCC(F)(C(=O)N(C)[C@H](C(=O)N[C@H]2C[C@H]3CN(CCO3)c3ccc4c(c3)c(c(-c3cccnc3C(C)OC)n4CC)CC(C)(C)COC(=O)[C@@H]3CCCN(N3)C2=O)C(C)C)CC1` (some centres undefined), the half-maximal inhibitory concentration (IC50) result in assay [1] was “in the range around 5.5 µM”; in assay [2], “in the range around 0.55 µM”; in assay [3] it was “in the range around 5.5 µM”; in assay [4], “in the range around 5.5 µM”; in assay [5], “in the range around 5.5 µM”; in assay [6], “in the range around 0.055 µM”. In assay [7], the IC50 entry is “in the range around 5.5 µM”.

By IC50 is commonly meant the concentration that gives 50% inhibition. Broadly, the pIC50 is −log10 of the IC50, conventionally taken in molar units.
